From patent publication US9828413B2, “Vancomycin derivative, and preparation method and application thereof” (ACESYS PHARMA INC., priority 2013, dated 2017)
In brackets after ≈: the same amount, converted by molar mass.

Columns and labels:
[1] = physchem; details: 25 °C, water, thermodynamic from solid
[2] = tested on: Staphylococcus aureus Newman; assay: In vitro activity assay, minimum inhibitory concentration (MIC), cup-plate method; type: cell-based; details: strain Newman, trypticase soy broth, read-out: MIC values, Staphylococcus aureus Newman
Method: (§1) In vitro activity assay was performed according to Microbiological Identification of Antibiotics, Appendix XIA, Volume II, Chinese Pharmacopoeia 2010. Vancomycin-sensitive Staphylococcus aureus strains (Newman and Mu 50) were selected as the test strains, and trypticase soy broth was selected as the culture medium.

[3] = tested on: Staphylococcus aureus Mu50; assay: as above; type: cell-based; details: strain Mu50, trypticase soy broth, read-out: MIC values, Staphylococcus aureus Mu50
Method: as §1

SMILES | solubility at 30 min [1] [mg/mL] | MIC [2] [mg/L] | MIC [3] [mg/L]
CN[C@H](CC(C)C)C(=O)NC1C(=O)N[C@@H](CC(N)=O)C(=O)N[C@H]2C(=O)NC3C(=O)N[C@H](C(=O)N[C@@H](C(=O)O)c4cc(O)cc(O)c4-c4cc3ccc4O)[C@H](O)c3ccc(c(Cl)c3)Oc3cc2cc(c3OC2OC(CO)C(O)C(O)C2OC2CC(C)(NCC(OCc3ccccc3)C(=O)OC)C(O)C(C)O2)Oc2ccc(cc2Cl)[C@H]1O (stereo partly drawn) [Compound V9] | < 0.1 | 8 (≈ 4.87 µM) | 32 (≈ 19.5 µM)
CN[C@H](CC(C)C)C(=O)NC1C(=O)N[C@@H](CC(N)=O)C(=O)N[C@H]2C(=O)NC3C(=O)N[C@H](C(=O)N[C@@H](C(=O)O)c4cc(O)cc(O)c4-c4cc3ccc4O)[C@H](O)c3ccc(c(Cl)c3)Oc3cc2cc(c3OC2OC(CO)C(O)C(O)C2OC2CC(C)(NCC(OCc3ccccc3)C(=O)O)C(O)C(C)O2)Oc2ccc(cc2Cl)[C@H]1O (stereo partly drawn) [Compound V11] | 50 to 60 (≈ 30700 to 36900 µM) | 8 (≈ 4.92 µM) | 32 (≈ 19.7 µM)
CN[C@H](CC(C)C)C(=O)N[C@@H]1C(=O)NC(CC(N)=O)C(=O)NC2C(=O)NC3C(=O)N[C@H](C(=O)NC(C(=O)O)c4cc(O)cc(O)c4-c4cc3ccc4O)[C@H](O)c3ccc(c(Cl)c3)Oc3cc2cc(c3OC2OC(CO)C(O)C(O)C2OC2CC(C)(NCC(OCc3ccc(-c4ccc(Cl)cc4)cc3)C(=O)OC)C(O)C(C)O2)Oc2ccc(cc2Cl)C1O (stereo partly drawn) [Compound V13] | 50 to 60 (≈ 28500 to 34200 µM) | < 0.125 | 2 (≈ 1.14 µM)
CN[C@H](CC(C)C)C(=O)NC1C(=O)N[C@@H](CC(N)=O)C(=O)N[C@H]2C(=O)NC3C(=O)N[C@H](C(=O)N[C@@H](C(=O)O)c4cc(O)cc(O)c4-c4cc3ccc4O)[C@H](O)c3ccc(c(Cl)c3)Oc3cc2cc(c3OC2OC(CO)C(O)C(O)C2OC2CC(C)(NCC(OCc3ccc(-c4ccc(Cl)cc4)cc3)C(=O)O)C(O)C(C)O2)Oc2ccc(cc2Cl)[C@H]1O (stereo partly drawn) [Compound V15] | ≥ 60 | < 0.125 | 2 (≈ 1.15 µM)
CCCCOC(CNC1(C)CC(OC2C(Oc3c4cc5cc3Oc3ccc(cc3Cl)[C@@H](O)[C@@H]3NC(=O)C(NC(=O)C5NC(=O)C(CC(N)=O)NC(=O)[C@@H](NC(=O)[C@@H](CC(C)C)NC)C(O)c5ccc(c(Cl)c5)O4)c4ccc(O)c(c4)-c4c(O)cc(O)cc4C(C(=O)O)NC3=O)OC(CO)C(O)C2O)OC(C)C1O)C(=O)OC (stereo partly drawn) [Compound V16] | ≥ 60 | 16 (≈ 9.95 µM) | 64 (≈ 39.8 µM)
CCCCOC(CNC1(C)CC(OC2C(Oc3c4cc5cc3Oc3ccc(cc3Cl)[C@@H](O)[C@@H]3NC(=O)C(NC(=O)[C@@H]5NC(=O)[C@H](CC(N)=O)NC(=O)C(NC(=O)[C@@H](CC(C)C)NC)[C@H](O)c5ccc(c(Cl)c5)O4)c4ccc(O)c(c4)-c4c(O)cc(O)cc4[C@H](C(=O)O)NC3=O)OC(CO)C(O)C2O)OC(C)C1O)C(=O)O (stereo partly drawn) [Compound V19] | 50 to 60 (≈ 31400 to 37700 µM) | 64 (≈ 40.2 µM) | > 128
CN[C@H](CC(C)C)C(=O)N[C@@H]1C(=O)NC(CC(N)=O)C(=O)NC2C(=O)NC3C(=O)N[C@H](C(=O)NC(C(=O)O)c4cc(O)cc(O)c4-c4cc3ccc4O)[C@H](O)c3ccc(c(Cl)c3)Oc3cc2cc(c3OC2OC(CO)C(O)C(O)C2OC2CC(C)(NCC(OCc3ccc(Cl)cc3)C(=O)OC)C(O)C(C)O2)Oc2ccc(cc2Cl)C1O (stereo partly drawn) [Compound V20] | < 5 | < 0.125 | 2 (≈ 1.19 µM)
CN[C@H](CC(C)C)C(=O)N[C@@H]1C(=O)NC(CC(N)=O)C(=O)NC2C(=O)NC3C(=O)N[C@H](C(=O)NC(C(=O)O)c4cc(O)cc(O)c4-c4cc3ccc4O)[C@H](O)c3ccc(c(Cl)c3)Oc3cc2cc(c3OC2OC(CO)C(O)C(O)C2OC2CC(C)(NCC(OCc3ccc(Cl)cc3)C(=O)O)C(O)C(C)O2)Oc2ccc(cc2Cl)C1O (stereo partly drawn) [Compound V21] | > 8 | < 0.125 | 2 (≈ 1.2 µM)
CN[C@H](CC(C)C)C(=O)N[C@@H]1C(=O)NC(CC(N)=O)C(=O)NC2C(=O)NC3C(=O)N[C@H](C(=O)NC(C(=O)O)c4cc(O)cc(O)c4-c4cc3ccc4O)[C@H](O)c3ccc(c(Cl)c3)Oc3cc2cc(c3OC2OC(CO)C(O)C(O)C2OC2CC(C)(NCC(OCc3ccc(C)cc3)C(=O)OC)C(O)C(C)O2)Oc2ccc(cc2Cl)C1O (stereo partly drawn) [Compound V22] | < 5 | 2 (≈ 1.21 µM) | 8 (≈ 4.83 µM)
CN[C@H](CC(C)C)C(=O)NC1C(=O)N[C@@H](CC(N)=O)C(=O)N[C@H]2C(=O)NC3C(=O)N[C@H](C(=O)N[C@@H](C(=O)O)c4cc(O)cc(O)c4-c4cc3ccc4O)[C@H](O)c3ccc(c(Cl)c3)Oc3cc2cc(c3OC2OC(CO)C(O)C(O)C2OC2CC(C)(NCC(OCc3ccc(C)cc3)C(=O)O)C(O)C(C)O2)Oc2ccc(cc2Cl)[C@H]1O (stereo partly drawn) [Compound V23] | > 8 | 2 (≈ 1.22 µM) | 8 (≈ 4.87 µM)
CN[C@H](CC(C)C)C(=O)NC1C(=O)N[C@@H](CC(N)=O)C(=O)N[C@H]2C(=O)NC3C(=O)N[C@H](C(=O)N[C@@H](C(=O)O)c4cc(O)cc(O)c4-c4cc3ccc4O)[C@H](O)c3ccc(c(Cl)c3)Oc3cc2cc(c3OC2OC(CO)C(O)C(O)C2OC2CC(C)(NCC(OCc3ccc(-c4ccccc4)cc3)C(=O)O)C(O)C(C)O2)Oc2ccc(cc2Cl)[C@H]1O (stereo partly drawn) [Compound V24] | > 10 | 4 (≈ 2.35 µM) | 8 (≈ 4.7 µM)
CN[C@H](CC(C)C)C(=O)N[C@@H]1C(=O)NC(CC(N)=O)C(=O)NC2C(=O)NC3C(=O)N[C@H](C(=O)NC(C(=O)O)c4cc(O)cc(O)c4-c4cc3ccc4O)[C@H](O)c3ccc(c(Cl)c3)Oc3cc2cc(c3OC2OC(CO)C(O)C(O)C2OC2CC(C)(NCC(OCc3ccc(-c4ccccc4)cc3)C(=O)OC)C(O)C(C)O2)Oc2ccc(cc2Cl)C1O (stereo partly drawn) [Compound V25] | < 5 | 4 (≈ 2.33 µM) | 8 (≈ 4.66 µM)
CN[C@H](CC(C)C)C(=O)N[C@@H]1C(=O)NC(CC(N)=O)C(=O)NC2C(=O)NC3C(=O)N[C@H](C(=O)NC(C(=O)O)c4cc(O)cc(O)c4-c4cc3ccc4O)[C@H](O)c3ccc(c(Cl)c3)Oc3cc2cc(c3OC2OC(CO)C(O)C(O)C2OC2CC(C)(NCC(OC)C(=O)OC)C(O)C(C)O2)Oc2ccc(cc2Cl)C1O (stereo partly drawn) [Compound V26] | 4.5 (≈ 2870 µM) | 16 (≈ 10.2 µM) | 64 (≈ 40.9 µM)
CN[C@H](CC(C)C)C(=O)NC1C(=O)N[C@@H](CC(N)=O)C(=O)N[C@H]2C(=O)NC3C(=O)N[C@H](C(=O)N[C@@H](C(=O)O)c4cc(O)cc(O)c4-c4cc3ccc4O)[C@H](O)c3ccc(c(Cl)c3)Oc3cc2cc(c3OC2OC(CO)C(O)C(O)C2OC2CC(C)(NCC(OC)C(=O)O)C(O)C(C)O2)Oc2ccc(cc2Cl)[C@H]1O (stereo partly drawn) [Compound V27] | 20 (≈ 12900 µM) | 16 (≈ 10.3 µM) | 64 (≈ 41.3 µM)
CCCOC(CNC1(C)CC(OC2C(Oc3c4cc5cc3Oc3ccc(cc3Cl)[C@@H](O)[C@@H]3NC(=O)C(NC(=O)[C@@H]5NC(=O)[C@H](CC(N)=O)NC(=O)C(NC(=O)[C@@H](CC(C)C)NC)[C@H](O)c5ccc(c(Cl)c5)O4)c4ccc(O)c(c4)-c4c(O)cc(O)cc4[C@H](C(=O)O)NC3=O)OC(CO)C(O)C2O)OC(C)C1O)C(=O)O (stereo partly drawn) [Compound V30] | 4 (≈ 2530 µM) | 4 (≈ 2.53 µM) | 16 (≈ 10.1 µM)
CCCCCCOC(CNC1(C)CC(OC2C(Oc3c4cc5cc3Oc3ccc(cc3Cl)[C@@H](O)[C@@H]3NC(=O)C(NC(=O)C5NC(=O)C(CC(N)=O)NC(=O)[C@@H](NC(=O)[C@@H](CC(C)C)NC)C(O)c5ccc(c(Cl)c5)O4)c4ccc(O)c(c4)-c4c(O)cc(O)cc4C(C(=O)O)NC3=O)OC(CO)C(O)C2O)OC(C)C1O)C(=O)OC (stereo partly drawn) [Compound V31] | < 1 | 2 (≈ 1.22 µM) | 8 (≈ 4.89 µM)
CCCCCCOC(CNC1(C)CC(OC2C(Oc3c4cc5cc3Oc3ccc(cc3Cl)[C@@H](O)[C@@H]3NC(=O)C(NC(=O)[C@@H]5NC(=O)[C@H](CC(N)=O)NC(=O)C(NC(=O)[C@@H](CC(C)C)NC)[C@H](O)c5ccc(c(Cl)c5)O4)c4ccc(O)c(c4)-c4c(O)cc(O)cc4[C@H](C(=O)O)NC3=O)OC(CO)C(O)C2O)OC(C)C1O)C(=O)O (stereo partly drawn) [Compound V32] | 50 to 60 (≈ 30800 to 37000 µM) | 2 (≈ 1.23 µM) | 8 (≈ 4.93 µM)
CCOC(CNC1(C)CC(OC2C(Oc3c4cc5cc3Oc3ccc(cc3Cl)[C@@H](O)[C@@H]3NC(=O)C(NC(=O)C5NC(=O)C(CC(N)=O)NC(=O)[C@@H](NC(=O)[C@@H](CC(C)C)NC)C(O)c5ccc(c(Cl)c5)O4)c4ccc(O)c(c4)-c4c(O)cc(O)cc4C(C(=O)O)NC3=O)OC(CO)C(O)C2O)OC(C)C1O)C(=O)OC (stereo partly drawn) [Compound V33] | 5 (≈ 3170 µM) | 16 (≈ 10.1 µM) | 64 (≈ 40.5 µM)
CC(C)C[C@@H](N)C(=O)N[C@@H]1C(=O)NC(CC(N)=O)C(=O)NC2C(=O)NC3C(=O)N[C@H](C(=O)NC(C(=O)O)c4cc(O)cc(O)c4-c4cc3ccc4O)[C@H](O)c3ccc(c(Cl)c3)Oc3cc2cc(c3OC2OC(CO)C(O)C(O)C2OC2CC(C)(NCC(OCc3ccccc3)C(=O)O)C(O)C(C)O2)Oc2ccc(cc2Cl)C1O (stereo partly drawn) [Compound V51] | 20 (≈ 12400 µM) | 8 (≈ 4.96 µM) | 32 (≈ 19.8 µM)
COC(=O)C(CNC1(C)CC(OC2C(Oc3c4cc5cc3Oc3ccc(cc3Cl)[C@@H](O)[C@@H]3NC(=O)C(NC(=O)C5NC(=O)C(CC(N)=O)NC(=O)[C@@H](NC(=O)[C@H](N)CC(C)C)C(O)c5ccc(c(Cl)c5)O4)c4ccc(O)c(c4)-c4c(O)cc(O)cc4C(C(=O)O)NC3=O)OC(CO)C(O)C2O)OC(C)C1O)OCc1ccc(Cl)cc1 (stereo partly drawn) [Compound V52] | 20 (≈ 12000 µM) | < 0.125 | 2 (≈ 1.2 µM)
